Read-outs that look alike come from different tables or passages of the source.
What was measured:
[1] = system: primary Clade B HIV-1 isolates; assay: Virus inhibition assay, primary HIV-1 isolates in PBMC, p24 endpoint; format: cell-based; details: Human immunodeficiency virus 1, PBMC
Description: (§1) A robust virus inhibition assay was used to evaluate the anti-viral activity of DSB against primary HIV-1 isolates propagated in PMBC. Briefly, serial dilutions of DSB were made in medium into 96-well tissue culture plates. 25-250 TCID50 of virus and 5×10^5 PHA-stimulated PBMCs were added to each well. On days 1, 3 and 5 post-infection, media was removed from each well and replaced with fresh media containing DSB at the appropriate concentration. On day 7 post-infection, culture supernatant was removed from each well for p24 detection of virus replication and 50% inhibitory concentrations (IC50) were calculated by standard methods.

[2] = system: drug resistant HIV-1 isolates; assay: Drug resistant HIV-1 isolates in fresh PBMC, p24 endpoint; format: cell-based; details: for IC50: Human immunodeficiency virus 1, PBMC
Description: as §1, with “concentration.” for “concentration. On day 7 post-infection, culture supernatant was removed from each well for p24 detection of virus replication and 50% inhibitory concentrations (IC50) were calculated by standard methods.”
(§2) The activity of DSB was tested against a panel of HIV-1 isolates resistant to approved drugs. These viruses were obtained from the NIH AIDS Research and Reference Reagent Program. Assays were performed using virus propagated in PBMCs with a p24 endpoint (above), or using cell line targets (MT-2 cells) and a cell killing endpoint. The MT-2 assay format was as follows. Serial dilutions of DSB, or each approved drug, were prepared in 96 well plates. To each sample well was added media containing MT-2 cells at 3×10^5 cells/mL and virus inoculum at a concentration necessary to result in 80% killing of the cell targets at 5 days post-infection (PI). On day 5 post-infection, virus-induced cell killing was determined by the XTT method and the inhibitory activity of the compound was determined.

[3] = system: NNRTI-resistant HIV-1 isolates; assay: NNRTI-resistant HIV-1 isolates in MT-2 cells, cell viability (XTT) endpoint; format: cell-based; details: for IC50: X4, MT-2 cells
Description: as §2

[4] = system: HIV-1 infected MAGI cells; format: cell-based
Source text: To distinguish the inhibitory activity of DSB against early and late replication targets, a multinuclear activation of a galactosidase indicator (MAGI) assay was used. In this assay, the targets are HeLa cells stably expressing CD4, CXCR4, CCR5 and a reporter construct consisting of the—galactosidase gene (modified to localize to the nucleus) driven by a truncated HIV-1 LTR. Infection of these cells results in expression of Tat that drives activation of the β-galactosidase reporter gene. Expression of β-galactosidase in infected cells is detected using the chromogenic substrate X-gal.

[5] = system: HIV-1 replication in H9 lymphocyte cells; details: cited from earlier work
[6] = 168 h, isolate 92HT599, co-receptor X4, PBMC, p24 day 7, read-out: IC50
[7] = 168 h, isolate 92US723, co-receptor R5/X4, PBMC, p24 day 7, read-out: IC50
[8] = 168 h, isolate 3401N*, co-receptor R5/X4, PBMC, p24 day 7, read-out: IC50
[9] = 168 h, isolate 19101N*, co-receptor R5, PBMC, p24 day 7, read-out: IC50
[10] = 168 h, isolate 22101N*, co-receptor R5/X4, PBMC, p24 day 7, read-out: IC50
[11] = 168 h, isolate BZ167, co-receptor X4, PBMC, p24 day 7, read-out: IC50
[12] = 168 h, isolate US1, co-receptor R5, PBMC, p24 day 7, read-out: IC50
[13] = mean over the panel of primary isolates, read-out: IC50, Mean
[14] = isolate 1, NRTI-resistant, K70R T215Y/F, R5/X4
[15] = isolate 2, NRTI-resistant, K70R T215Y/F, R5/X4
[16] = isolate 5, Protease-resistant, V82A, X4
[17] = isolate 6, Protease-resistant, I84V, X4
[18] = isolate 7, Protease-resistant, L10R/M46I/L63P/V82T/I84V, X4
[19] = Human immunodeficiency virus 1, MT2, isolate 3, NNRTI-resistant, Y181C
[20] = Human immunodeficiency virus 1, MT2, isolate 4, NNRTI-resistant, K103N Y181C
[21] = H9 lymphocyte cells, read-out: EC50, inhibitory activity against HIV-1 replication

Row | SMILES | IC50 [1, 6] | IC50 [1, 7] | IC50 [1, 8] | IC50 [1, 9] | IC50 [1, 10] | IC50 [1, 11] | IC50 [1, 12] | IC50 [1, 13] | IC50 [2, 14] | IC50 [2, 15] | IC50 [2, 16] | IC50 [2, 17] | IC50 [2, 18] | IC50 [3, 19] | IC50 [3, 20] | % Decrease (β-galactosidase expression) ([4]; HIV-1 infected MAGI cells) | EC50 [5, 21] | further results
1 | Cc1cn([C@H]2C[C@H](N=[N+]=[N-])[C@@H](CO)O2)c(=O)[nH]c1=O [AZT, zidovudine] | 5.8 nM | 1.2 nM | 17.5 nM | 2.4 nM | 0.9 nM | 2.2 nM | 0.9 nM | 4.4 nM | 86.4 nM | 63.4 nM | 13.1 nM | 14.4 nM | 3.5 nM | 5.1 nM | 2 nM | 82% |  | Fold Resistance ([2]; isolate 1, NRTI-resistant): 54 X; Fold Resistance ([2]; isolate 2, NRTI-resistant): 40 X
2 | CC(C)[C@@H]1CC[C@]2(C(=O)O)CC[C@]3(C)C(CCC4[C@@]5(C)CC[C@H](O)C(C)(C)C5CC[C@]43C)C12 (stereo partly drawn) [dihydrobetulinic acid] |  |  |  |  |  |  |  |  |  |  |  |  |  |  |  |  |  | EC50 ([5]; unit inferred, read-out: EC50, anti-HIV activity): 900 nM
3 | CC(=O)[C@@H]1CC[C@]2(C(=O)O)CC[C@]3(C)[C@H](CC[C@@H]4[C@@]5(C)CC[C@H](O)C(C)(C)[C@@H]5CC[C@]43C)[C@@H]12 [platanic acid] |  |  |  |  |  |  |  |  |  |  |  |  |  |  |  |  | 6500 nM | 
4 | Cc1ccnc2c1NC(=O)c1cccnc1N2C1CC1 [Nevirapine, nevirapine] | 25.3 nM | 26.8 nM | 32.1 nM | 59.4 nM | 4.9 nM | 31.2 nM | 22.1 nM | 28.8 nM |  |  |  |  |  | > 3800 nM | 2630 nM | 85% |  | Fold Resistance ([3]; isolate 3, NNRTI-resistant): (>177X); Fold Resistance ([3]; isolate 4, NNRTI-resistant): (122X)
5 | C=C(C)[C@@H]1CC[C@]2(C(=O)O)CC[C@]3(C)[C@H](CC[C@@H]4[C@@]5(C)CC[C@H](O)C(C)(C)[C@@H]5CC[C@]43C)[C@@H]12 [Betulinic acid] |  |  |  |  |  |  |  |  |  |  |  |  |  |  |  |  | 1400 nM | 
6 | CC(C)(C)NC(=O)[C@@H]1CN(Cc2cccnc2)CCN1C[C@@H](O)C[C@@H](Cc1ccccc1)C(=O)N[C@H]1c2ccccc2C[C@H]1O [Indinavir, indinavir] |  |  |  |  |  |  |  |  | 9.8 nM | 6.1 nM | 39.7 nM | 32.7 nM | 72.5 nM | 2.5 nM | 4.5 nM |  |  | % Decrease (β-galactosidase expression) [4]: 10%
